Values after ≈ are worked out from the molar mass of the structure shown. Read-outs that look alike come from different tables or passages of the source.
Key:
KPC-2 [1] = target: T1, KPC-2 (Klebsiella pneumoniae, UniProt Q9F663); settings: at 15 min; cited from earlier work
A. baumannii SL04 = assay: MIC against clinical isolate A. baumannii SL04; type: cell-based
A. baumannii NCTC 13303 = assay: MIC against A. baumannii NCTC 13303; type: cell-based
A. baumannii NCTC 13301 = assay: MIC against A. baumannii NCTC 13301; type: cell-based
[2] = tested on: KPC-2 (donor) and TEM-1 (recipient); assay: Acyl-transfer ESI-MS, KPC-2 donor to TEM-1 recipient; type: biochemical; settings: equimolar KPC-2:DBO preincubated 1 min, then equimolar TEM-1
OXA-23 = OXA-23 (Acinetobacter baumannii, UniProt Q9L4P2); assay: Steady-state inhibitor kinetics; type: biochemical, A. baumannii
KPC-2 [3] = target: T1, KPC-2; assay: biochemical
ADC-7 = ADC-7 (Acinetobacter baumannii, UniProt Q6DRA1); assay: Steady-state inhibitor kinetics; type: biochemical; settings: for lower Ki app values compared to those of avibactam and relebactam: ADC-7
OXA-24/40 = OXA-24/40 (Acinetobacter baumannii, UniProt Q8RLA6); assay: biochemical; parameters: species or system A. baumannii
PDC-3 = PDC-3 (Pseudomonas aeruginosa, UniProt P24735, T105A); type: biochemical
[4] = tested on: Enterobacteriaceae that expressed blaOXA-48 or blaOXA-48 mutants; type: cell-based; settings: for MIC: Escherichia coli, E. coli Jefferson 17,75 OXA-48, agent alone
[5] = tested on: E. coli DH10B expressing a single β-lactamase; type: cell-based; settings: Escherichia coli, agent alone
[6] = tested on: Escherichia coli DH10B (control); assay: MIC, broth microdilution, Escherichia coli DH10B; type: cell-based
[7] = tested on: E. coli DH10B with pBR322-catI-blaKPC-2; assay: MIC, broth microdilution, isogenic E. coli DH10B with pBR322-catI-blaKPC-2; type: cell-based; settings: Escherichia coli, β-lactam alone; E. coli DH10B pBR322-catI-blaKPC-2
[8] = tested on: A. baumannii ΔblaADC with pWH1266 blaOXA-24/40; type: cell-based; settings: Acinetobacter baumannii, β-lactam alone; A. baumannii ΔblaADC pWH1266 blaOXA-24
A. baumannii AADC = assay: MIC, broth microdilution, A. baumannii ΔblaADC parent strain; type: cell-based; settings: Acinetobacter baumannii
[9] = tested on: A. baumannii ΔblaADC with pWH1266 blaOXA-23; assay: MIC, broth microdilution, isogenic A. baumannii ΔblaADC with pWH1266 blaOXA-23; type: cell-based; settings: Acinetobacter baumannii, β-lactam alone; A. baumannii ΔblaADC pWH1266 blaOXA-23
CMY-2 = settings: cited from earlier work
[10] = tested on: A. baumannii strains (NCTC 13301, NCTC 13303, SL46); assay: Murine peritonitis model, summary over the three A. baumannii strains; type: in vivo; settings: supra-therapeutic doses, 6.25 mg/kg administered as two doses
[11] = tested on: TEM-1 (donor) and CTX-M-15 (recipient); settings: cited from earlier work
A. baumannii SL46 = assay: MIC against A. baumannii SL46; type: cell-based; settings: Acinetobacter baumannii
[12] = E. coli DH10B pBC SIC (−) KPC-2
[13] = E. coli DHIOB pBC SIC (−) PDC-3
[14] = Acinetobacter baumannii, NCTC13303
[15] = Acinetobacter baumannii, NCTC13301

Question: Which “turnover number (tn)” value (KPC-2 [1]) does the source give for `O=C(O)[C@H]1/C(=C/CO)O[C@@H]2CC(=O)N21` [clavulanic acid] here?
Answer: The value was 2,500.

Question: For colistin, which MIC (A. baumannii SL04; A. baumannii SL04 carrying blaOXA-23 and blaOXA-51) is on record?
Answer: Its MIC is 2 µg/mL.

Question: And the MIC (A. baumannii NCTC 13303; A. baumannii NCTC 13303, 3 at a fixed 8 μg/mL, cefepime-2 at 1:1 ratio)?
Answer: Its MIC is 0.5 µg/mL.

Question: And the MIC (A. baumannii NCTC 13301; A. baumannii NCTC 13301, 3 at a fixed 8 μg/mL, cefepime-2 at 1:1 ratio)?
Answer: Its MIC is 1 µg/mL.

Question: What does the source list for `N#C[C@@H]1CC[C@@H]2CN1C(=O)N2OS(=O)(=O)[O-].[Na+]` [Compound 3, (2S,5R)-1,6-Diazabicyclo[3.2.1]octane-2-carbonitrile-7-oxo-6-(sulfooxy)-monosodium Salt]?
Answer: time for transfer from KPC-2 to TEM-1 [2]: ≤ 15 s; Kd (OXA-23): 0.029 ± 0.004 µM; Ki (OXA-23): 8 ± 1 µM; Kd (KPC-2 [3]): 0.0019 ± 0.0002 µM; Ki (KPC-2 [3]): 0.32 ± 0.03 µM; Kd (ADC-7): 0.053 ± 0.007 µM; Ki (ADC-7): 8 ± 0.8 µM; Kd (OXA-24/40): 0.042 ± 0.006 µM; Ki (OXA-24/40): 5 ± 0.5 µM

Question: What does the source list for `O=C(NNC(=O)[C@@H]1CC[C@@H]2CN1C(=O)N2OS(=O)(=O)O)[C@@H]1CCNC1` [Compound 1, (2S,5R)-6-Sulfooxy-7-oxo-2-[((3R)-pyrrolidine-3-carbonyl)hydrazinocarbonyl]-1,6-diazabicyclo[3.2.1]octane]?
Answer: time required for transfer from KPC-2 to TEM-1 [2]: 5 min; Ki (OXA-23): > 100 µM; lower Ki app values compared to those of avibactam and relebactam (PDC-3): 18–25 fold; MIC [4]: > 16 µg/mL; lower Ki app values compared to those of avibactam and relebactam (ADC-7): 3–8 fold; Ki (OXA-24/40): > 100 µM

Question: Which results are given for `O=C(NNC(=O)[C@@H]1CC[C@@H]2CN1C(=O)N2OS(=O)(=O)O)[C@@H]1CCCNC1` [Compound 2, (2S,5R)-6-Sulfooxy-7-oxo-2-[((3R)-piperidine-3-carbonyl)hydrazinocarbonyl]-1,6-diazabicyclo[3.2.1]octane]?
Answer: time required for transfer from KPC-2 to TEM-1 [2]: 5 min; Ki (OXA-23): > 100 µM; MIC (A. baumannii SL04; Acinetobacter baumannii, SL04): ≥ 512 µg/mL; lower Ki app values compared to those of avibactam and relebactam (PDC-3): 18–25 fold; MIC [4]: > 16 µg/mL; lower Ki app values compared to those of avibactam and relebactam (ADC-7): 3–8 fold; Ki (OXA-24/40): > 100 µM

Question: For `C[C@@H](O)[C@H]1C(=O)N2C(C(=O)O)=C(S[C@@H]3CN[C@H](C(=O)N(C)C)C3)[C@H](C)[C@H]12` [meropenem], which MIC [5, 12] is on record?
Answer: Its MIC is less than 0.12 µg/mL.

Question: What about the MIC [5, 13] of the same molecule?
Answer: Its MIC is less than 0.12 µg/mL.

Question: What about the MIC [6] of the same molecule?
Answer: Its MIC is less than 0.12 µg/mL.

Question: And the MIC (A. baumannii NCTC 13303; [14])?
Answer: Its MIC is 256 µg/mL (≈ 668 µM).

Question: And the MIC [7]?
Answer: The MIC was no less than 8 µg/mL.

Question: And the MIC [8]?
Answer: Its MIC is no less than 8 µg/mL.

Question: What about the MIC (A. baumannii NCTC 13301; [15]) of the same molecule?
Answer: Its MIC is 32 µg/mL (≈ 83.4 µM).

Question: And the MIC (A. baumannii AADC)?
Answer: Its MIC is less than 0.12 µg/mL.

Question: And the MIC [9]?
Answer: The MIC was no less than 8 µg/mL.

Question: Which Ki (CMY-2) does the source give for `C[C@]1(Cn2ccnn2)[C@H](C(=O)O)N2C(=O)C[C@H]2S1(=O)=O` [tazobactam] here?
Answer: Its Ki is 40 µM.

Question: For `O.O=C(NC1CCNCC1)[C@@H]1CC[C@@H]2CN1C(=O)N2OS(=O)(=O)O` [relebactam], which Ki (OXA-23) is on record?
Answer: The Ki was greater than 100 µM.

Question: What about the “restoration of susceptibility to cefepime and meropenem” value ([4]; clinical isolates of Enterobacteriaceae expressing blaOXA-48 or mutants) of the same molecule?
Answer: Its value is “less effective”.

Question: What about the Ki (OXA-24/40) of the same molecule?
Answer: Its Ki is greater than 100 µM.

Question: With `CN(C)c1cc(NC(=O)CNC(C)(C)C)c(O)c2c1C[C@H]1C[C@H]3[C@H](N(C)C)C(O)=C(C(N)=O)C(=O)[C@@]3(O)C(O)=C1C2=O` [tigecycline] as the molecule, how does the “protection of infected mice” value [10] read?
Answer: Its value is “failed to protect infected mice”.

Question: What about the MIC (A. baumannii NCTC 13303; [14]) of the same molecule?
Answer: The MIC was 1 µg/mL (≈ 1.71 µM).

Question: What about the MIC (A. baumannii NCTC 13301; [15]) of the same molecule?
Answer: The MIC was 1 µg/mL (≈ 1.71 µM).

Question: For `NC(=O)[C@@H]1CC[C@@H]2CN1C(=O)N2OS(=O)(=O)O` [avibactam], which “time of maximum transfer from TEM-1 to CTX-M-15” value [11] is on record?
Answer: The value was 30 min.

Question: Which results are given for `CO/N=C(\C(=O)N[C@@H]1C(=O)N2C(C(=O)[O-])=C(C[N+]3(C)CCCC3)CS[C@H]12)c1csc(N)n1` [cefepime]?
Answer: MIC [5, 12]: 0.5 µg/mL (≈ 1.04 µM); MIC ([5]; E. coli DHIOB pBC SIC (−) OXA-48): < 0.12 µg/mL; MIC [5, 13]: < 0.12 µg/mL; MIC [6]: < 0.12 µg/mL; MIC (A. baumannii NCTC 13303; [14]): 64 µg/mL (≈ 133 µM); MIC (A. baumannii SL46): > 512 µg/mL

Source: article PMC6131718 (Journal of medicinal chemistry, 2018)
